Test [1] addresses T1, Adenosine receptor A3 (Homo sapiens) (UniProt P0DMS8).
T1 sequence (whole entry): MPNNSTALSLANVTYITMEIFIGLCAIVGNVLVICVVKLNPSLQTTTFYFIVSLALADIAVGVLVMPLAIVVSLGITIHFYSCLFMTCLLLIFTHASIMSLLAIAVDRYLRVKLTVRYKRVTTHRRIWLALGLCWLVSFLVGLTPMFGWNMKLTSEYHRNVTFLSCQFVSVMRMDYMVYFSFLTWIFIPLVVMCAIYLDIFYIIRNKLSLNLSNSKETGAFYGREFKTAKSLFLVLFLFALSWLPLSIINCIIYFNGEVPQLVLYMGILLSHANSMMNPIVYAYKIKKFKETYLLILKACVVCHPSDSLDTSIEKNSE
Kind of test: Displacement of [125I]I-AB-MECA from human recombinant adenosine A3 receptor expressed in CHO cells at 10 uM. It counts as cell-based.

Test [2] addresses T2, Adenosine receptor A1 (Homo sapiens) (UniProt P30542).
T2 sequence (whole entry): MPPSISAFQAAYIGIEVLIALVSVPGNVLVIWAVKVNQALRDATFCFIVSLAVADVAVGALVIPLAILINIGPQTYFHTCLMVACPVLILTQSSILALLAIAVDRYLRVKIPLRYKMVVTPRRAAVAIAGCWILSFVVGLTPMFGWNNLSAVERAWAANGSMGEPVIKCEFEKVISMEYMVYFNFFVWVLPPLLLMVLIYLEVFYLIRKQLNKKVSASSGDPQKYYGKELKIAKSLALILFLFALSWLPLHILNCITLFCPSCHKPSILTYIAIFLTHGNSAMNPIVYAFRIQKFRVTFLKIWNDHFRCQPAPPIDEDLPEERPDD
Kind of test: Displacement of [3H]CCPA from human recombinant adenosine A1 receptor expressed in CHO cells at 10 uM. It counts as cell-based.

Test [3] addresses T1, Adenosine receptor A3 (Homo sapiens). Kind of test: Decrease in dissociation of [125I]I-AB-MECA from human recombinant adenosine A3 receptor expressed in CHO cells at 10 uM after 60 mins relative to control. More on the design: scale not given: the % may be the effect or the level left. The format is cell-based.
In test [4] the target is Adenosine receptor A2a (Homo sapiens) (UniProt P29274). Kind of test: Displacement of [3H]CGS21680 from human recombinant adenosine A2A receptor expressed in HEK293 cells at 10 uM. The format is cell-based. On the technique in general: Displacement assays read how much labelled ligand stays bound in the presence of the test substance.
The target in test [5] is T1, Adenosine receptor A3 (Homo sapiens). Kind of test: Increase in efficacy of stimulation of [35S]GTPgammaS binding to human adenosine A3 receptor expressed in CHO cells at 10 uM by liquid scintillation counting relative to C1-IB-MECA. It counts as functional, cell-based. Background: GTPγS resists hydrolysis and so accumulates on activated G proteins.

This note sets out measurements from ChEMBL document CHEMBL1153383, “Novel 2- and 4-substituted 1H-imidazo[4,5-c]quinolin-4-amine derivatives as allosteric modulators of the A3 adenosine receptor” (J Med Chem, 2009).

Adenosine receptor A2a (Homo sapiens), sequence (P29274 whole entry): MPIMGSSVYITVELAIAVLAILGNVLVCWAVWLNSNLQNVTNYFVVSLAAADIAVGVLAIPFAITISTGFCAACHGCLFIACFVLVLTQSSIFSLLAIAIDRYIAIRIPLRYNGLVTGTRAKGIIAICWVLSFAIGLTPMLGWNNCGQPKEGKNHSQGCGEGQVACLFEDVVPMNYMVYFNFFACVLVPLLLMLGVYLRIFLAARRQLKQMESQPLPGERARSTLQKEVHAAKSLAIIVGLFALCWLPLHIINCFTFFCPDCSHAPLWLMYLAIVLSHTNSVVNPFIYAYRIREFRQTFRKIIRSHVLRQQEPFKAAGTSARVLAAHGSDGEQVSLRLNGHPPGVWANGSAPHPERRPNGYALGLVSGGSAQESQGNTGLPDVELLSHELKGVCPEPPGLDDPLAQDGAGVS

Turning to `O=C(c1ccccc1)N1CCC(c2nc3c(Nc4ccc(Cl)c(Cl)c4)nc4ccccc4c3[nH]2)CC1`, the Activity turned out to be 29.8% in test [1], 20.2% in test [2], 91% in test [3] and 8.8% in test [4].

In the case of `Clc1ccc(Nc2nc3ccccc3c3[nH]c(C4CCCCC4)nc23)c(Cl)c1`, the Activity was found to be 43.9% in test [1]; 187% in test [5]; 48% in test [2]; 174% in test [3]; 67.2% in test [4].

For the compound `c1cncc(Nc2nc3ccccc3c3[nH]c(C4CCCCC4)nc23)c1`, the Activity came to 64.8% in test [1]; 119% in test [5]; 73.1% in test [2]; 114% in test [3]; 78.1% in test [4].

`Clc1ccc(Nc2nc3ccccc3c3[nH]c([C@H]4C[C@H]5CC[C@H]4C5)nc23)cc1Cl`: the Activity came to 50.5% in test [1], 44.8% in test [2], 168% in test [3] and 39.4% in test [4].

`c1ccc2c(c1)nc(Nc1ccc3c(c1)OCO3)c1nc(C3CCCCC3)[nH]c12`: the Activity in test [1] was 83.9%; in test [5], 166%; in test [2], 65.4%; in test [3], 185%; in test [4], 49%.

With `Clc1ccc(Nc2nc3ccccc3c3[nH]c(C45CC6CC(CC(C6)C4)C5)nc23)cc1Cl`, the Activity is 17.2% in test [1], 13.8% in test [2], 196% in test [3] and -4.4% in test [4].

With `N#Cc1ccc(Nc2nc3ccccc3c3nc(C4CCCCC4)[nH]c23)cc1C#N`, the Activity turned out to be 42.2% in test [1]; 138% in test [5]; 33.1% in test [2]; 129% in test [3]; 37.2% in test [4].

Regarding `Clc1ccc(Nc2nc3ccccc3c3[nH]c(C4CCC4)nc23)cc1Cl`, the Activity in test [2] is -5.2%.

For the compound `Clc1cccc(Nc2nc3ccccc3c3[nH]c(C4CCCCC4)nc23)c1`, the Activity was 79.2% in test [1]; 200% in test [5]; 53.3% in test [2]; 194% in test [3]; 42.8% in test [4].

For the compound `Fc1ccc(Nc2nc3ccccc3c3[nH]c(C4CCCCC4)nc23)cc1F`, the Activity in test [1] came out at 68.8%; in test [5], 197%; in test [2], 14.6%; in test [3], 187%; in test [4] it was 26.5%.

As to `Clc1ccc(Nc2nc3ccccc3c3[nH]c(C45CC6CC(CC4C6)C5)nc23)cc1Cl`, the Activity in test [1] was 3.3%; in test [2], 14.5%; in test [3] it was 139%; in test [4], -17.3%.

In the case of `Clc1ccc(Nc2nc3ccccc3c3[nH]c(C4CCCCCC4)nc23)cc1Cl`, the figures for the Activity in test [2] and in test [4] were -4.2% and -2.2%, respectively.

As for `O=C(c1ccccc1)N1CCC(c2nc3c(Nc4ccccc4)nc4ccccc4c3[nH]2)CC1`, the Activity was found to be 35.3% in test [1], 12.4% in test [2], 92% in test [3] and 43.4% in test [4].

For the compound `Clc1ccc(Nc2nc3ccccc3c3[nH]c(C4CCCC4)nc23)cc1Cl`, in test [4], the Activity was 0%.

As to `N[C@H]1CC[C@@H](c2nc3c(Nc4ccc(Cl)c(Cl)c4)nc4ccccc4c3[nH]2)CC1`, the Activity came to 4.2% in test [1], 31.7% in test [2], 107% in test [3] and 15.8% in test [4].

For the compound `Clc1ccc(Nc2nc3ccccc3c3[nH]c(C4CCNCC4)nc23)cc1Cl`, the Activity in test [1] was 52.8%; in test [2], 10.9%; in test [3] it was 101%; in test [4], 7%.

Regarding `Fc1cc(F)cc(Nc2nc3ccccc3c3[nH]c(C4CCCCC4)nc23)c1`, the Activity came out at 70.1% in test [1]; 171% in test [5]; 36.6% in test [2]; 188% in test [3]; 17.2% in test [4].

Regarding `Clc1cc(Cl)cc(Nc2nc3ccccc3c3[nH]c(C4CCCCC4)nc23)c1`, the Activity in test [1] is 32.7%; in test [5], 209%; in test [2], 16.7%; in test [3] it was 184%; in test [4], -11.4%.

On to `COc1ccc(Nc2nc3ccccc3c3[nH]c(C4CCCCC4)nc23)cc1OC`, for which the Activity in test [1] was 98.4%; in test [5], 182%; in test [2], 75.6%; in test [3] it was 173%; in test [4], 93.8%.

As for `FC(F)(F)c1cc(Nc2nc3ccccc3c3nc(C4CCCCC4)[nH]c23)cc(C(F)(F)F)c1`, the Activity in test [1] was determined as 21.8%; in test [5], 143%; in test [2], 7.2%; in test [3], 137%; in test [4] it was 15.6%.

Regarding `Clc1ccc(Nc2nc3ccccc3c3[nH]c(C4CCN(Cc5ccccc5)CC4)nc23)cc1Cl`, the Activity in test [1] was 46.3%; in test [2], 17.8%; in test [3], 93%; in test [4], -3.1%.

In the case of `Clc1ccc(Nc2nc3ccccc3c3nc(C4CCCCC4)[nH]c23)cc1Cl`, the Activity was 37% in test [2] and -11.2% in test [4].

For the compound `Clc1ccc(Nc2nc3ccccc3c3[nH]c([C@H]4C[C@H]5CC[C@@H]4C5)nc23)cc1Cl`, the Activity in test [1] was found to be 61.2%; in test [2] it was 77.9%; in test [3] it was 187%; in test [4], 5.8%.

`O=C1c2ccccc2C(=O)N1[C@H]1CC[C@@H](c2nc3c(Nc4ccc(Cl)c(Cl)c4)nc4ccccc4c3[nH]2)CC1`: the Activity was found to be 5.6% in test [1], 21.4% in test [2], 102% in test [3] and 56.8% in test [4].

As to `Clc1ccc(Nc2nc3ccccc3c3[nH]c(C4CCOCC4)nc23)cc1Cl`, the Activity in test [1] was 69.6%; in test [2], 37.2%; in test [3], 115%; in test [4], -11.9%.
